Experimental data: patent EP1095657A2, “Compositions for the regulation of cytokine activity” (priority 1992, dated 1994)

Legend:
[1] = system: experimental DTH reaction in mice; experiment: In vivo bioassay of inhibition of experimental DTH reactivity (oxazolone ear swelling); design: species or system mice (BALB/c or CD1); key to effect on the experimental DTH reaction (monosaccharides): "N.E." indicates that no effect was observed at the tested dosage range of 0.000004-4 µg/gm mouse; conditions: for effect on the experimental DTH reaction (monosaccharides): dosage range of 0.000004-4 µg/gm mouse; for DTH: at that dose, value in parentheses in the cell taken as positive control, not reported
Protocol: Groups of inbred BALB/c (Jackson Laboratories, Bar Harbor, ME) or of outbred CD1 (Weizmann Institute Animal Breeding Center, Rehovot, Israel) mice are sensitized on the shaved abdominal skin with 100 µl of 2% oxazolone (OX) in acetone/olive oil (4/1, v/v) applied topically. DTH sensitivity is elicited 5 days later as follows: mice are challenged with 20 µl of 0.5% OX (10 µl administered topically to each side of the ear) in acetone/olive oil. A constant area of the ear is measured immediately before challenge and 24 and 48 h later with a Mitutoyo engineer's micrometer. The individual measuring ear swelling is blinded to the identity of the groups of mice. The increment (△) of ear swelling is expressed as the mean in units of 10^-2 mm or 10^-4 inch (+SE) depending on the micrometer that is used. Percent inhibition is calculated as follows: %Inhibition= 1-((Treated-negative control)/(positive control-negative control)) [formula]
Mice are treated with LMWH as in Example 5.1, injected the day before primary sensitization to OX. On the fifth day after sensitization to OX, the mice are challenged to induce a DTH reaction, as described above.
The positive control is the DTH reaction elicited in immunized mice in the absence of treatment with LMWH. The negative control is the background swelling produced by the antigen in naive (non-immunized) mice.
BALB/c mice (at least 5 mice per group) were sensitized on the shaved abdomen with 3% 4-ethoxymethylene-2-phenyl oxazolone (OX; BDH Chemicals, GB) in acetone/olive oil applied topically. DTH sensitivity was elicited 5 days later as follows. Mice were challenged with 0.5% OX in acetone/olive oil. The ear was measured immediately before challenge and 24 h later with Mitutoyo engineer's micrometer (Japan). The individual measuring the swelling of the ear was blinded to the identity of the groups of mice. To interfere with DTH response, the low molecular weight immuno-regulatory fractions, diluted in PBS, were administrated subcutaneously into the back of the treated mice at the indicated time schedules and concentrations. Treated mice were inspected during and after (>2 months) the treatment and no major side-effects were observed clinically.
In particular, CD1 mice (available from the Weizmann Institute Animal Breeding Center, Rehovot, Israel), 4-12 mice per group, were treated as described in Section 5.2 or 6.8.

[2] = system: secretion of active TNF-α by activated human CD4+ T cells; experiment: Bioassay of TNF-α activity using human CD4+ T cells derived from PBLs (human PBL bioassay); conditions: for Bioassay of TNF Activity, in words: conc range of 1 µg/ml - 0.01 pg/ml, inconsistent = not the same result in all three bioassays; for "R" value: zero assigned where no effect is observed
[3] = system: adjuvant arthritis in Lewis rats; experiment: Adjuvant arthritis (AA) in rats; format: in vivo
[4] = system: IDDM of NOD mice; experiment: Insulin dependent diabetes mellitus (IDDM) of NOD mice; format: in vivo
[5] = system: mortality after gamma irradiation; experiment: Radioprotective effect in gamma-irradiated mice; format: in vivo, BALB/c mice
Protocol: Groups of female BALB/c mice, 8 weeks old, 5-10 mice per group, were injected subcutaneously with either saline (0.1 ml, control), H-9392 (30 ng/mouse), or glucosamine (10,000 ng/mouse) 1 day before irradiation, and weekly thereafter until termination of the experiment on day 30. All the mice were irradiated to a dose of 700 rads using a ^60Co gamma radiation source.
In a separate experiment, groups of BALB/c mice (5 mice to a group) were likewise exposed to 750 rads of gamma-rays, except that these groups of mice were treated with test substances (saline at 0.1 ml per mouse; H-9392 at 0.3, 3, 30 and 300 ng/mouse; and glucosamine at 1, 10 and 100 µg/mouse) on the day before irradiation, on the sixth day after irradiation, and once again on the thirteenth day after irradiation only. All treatment ceased after the third and last administration.

[6] = CD1 mice, s.c., inhibitory, 0 = no effect
[7] = CD1 mice, s.c., dose giving Inhmax in the higher effective dose range
[8] = CD1 mice, s.c., higher effective dose range

SMILES: CC(=O)N[C@H]1C(O)O[C@H](CO)[C@@H](O[C@@H]2OC(C(=O)O)=C[C@H](O)[C@H]2OS(=O)(=O)O)[C@@H]1O (some centres unmarked) [H-8767]
- effect on the experimental DTH reaction, in words (disaccharide markers) ([1]; CD1 mice, s.c.): N.E.
- "R" value [1, 6]: 0 % x (μg/gm)^-1
- Bioassay of TNF Activity, in words [2]: Inconsistent

SMILES: CC(=O)N[C@H]1C(O)O[C@H](COS(=O)(=O)O)[C@@H](O[C@@H]2OC(C(=O)O)=C[C@H](O)[C@H]2O)[C@@H]1O (some centres unmarked) [H-8642]
- effect on the experimental DTH reaction, in words (disaccharide markers) ([1]; CD1 mice, s.c.): N.E.
- "R" value [1, 6]: 0 % x (μg/gm)^-1
- Bioassay of TNF Activity, in words [2]: Inconsistent

SMILES: N[C@H]1C(O)O[C@H](CO)[C@@H](O)[C@@H]1O (stereo partly drawn) [GlcN, 2-amino-2-deoxy-D-glucose]
- Inhmax ([1]; CD1 mice, s.c.): 75%
- Dose [1, 7]: 0.4 µg/gm
- "R" value [1, 8]: 2.2 x 10^2 % x (µg/gm)^-1
- Inhmax [1, 8]: 88%
- "R" value [1, 6]: 6.25 x 10^6 % x (μg/gm)^-1
- inhibition of the development of AA, of control levels ([3]; s.c. weekly, three dosage levels): 60-80%
- mice that had become diabetic ([4]; at 4.5 months, H-9392 30 ng/mouse, glucosamine 10,000 ng/mouse s.c., all control mice diabetic): about 65%
- mice that had died, in words ([4]; by age 5 months, H-9392 30 ng, glucosamine 10,000 ng, all control mice had died): about half
- mortality rate ([5]; 700 rads, by day 30, s.c. 1 day before irradiation and weekly, H-9392 30 ng/mouse, glucosamine 10,000 ng/mouse, saline 100%): 20%
- activity in suppressing mortality after irradiation, in words ([5]; 750 rads, three administrations, 300 ng H-9392, 1 µg glucosamine): moderate activity in suppressing mortality

SMILES: C[C@@H]1C[C@H]2[C@@H]3CCC4=CC(=O)C=C[C@]4(C)[C@@]3(F)[C@@H](O)C[C@]2(C)[C@@]1(O)C(=O)COP(=O)(O)O [dexamethasone phosphate]
- course of AA after treatment has ended, in words ([3]; 100 µg per rat s.c. daily from day 12): suffered a relapse
- effect on AA at 30 days post-induction, in words ([3]; weekly s.c. from day 12 to day 26, 120 ng disaccharide or 100 µg dexamethasone phosphate per rat): only a moderate reduction in the severity of the AA score

SMILES: N[C@H]1C(O)O[C@H](CO)[C@@H](O[C@@H]2OC(C(=O)O)=C[C@H](O)[C@H]2OS(=O)(=O)O)[C@@H]1O (some centres unmarked) [H-9142]
- effect on the experimental DTH reaction, in words (disaccharide markers) ([1]; CD1 mice, s.c.): neutral and N.E.
- "R" value [1, 6]: 0 % x (μg/gm)^-1
- Bioassay of TNF Activity, in words [2]: Inconsistent

SMILES: N[C@H]1C(O)O[C@H](COS(=O)(=O)O)[C@@H](O)[C@@H]1O (stereo partly drawn) [GlcN-6S, D-Glucosamine-6-sulfate]
- effect on the experimental DTH reaction (monosaccharides) ([1]; CD1 mice, s.c.): N.E.
- "R" value [1, 6]: 0 % x (μg/gm)^-1

SMILES: O=C(O)C1=C[C@H](O)[C@@H](O)[C@H](O[C@H]2[C@H](O)[C@@H](NS(=O)(=O)O)C(O)O[C@@H]2CO)O1 (some centres unmarked) [H-1145]
- effect on the experimental DTH reaction, in words (disaccharide markers) ([1]; CD1 mice, s.c.): neutral and N.E.
- "R" value [1, 6]: 0 % x (μg/gm)^-1

SMILES: N[C@H]1C(O)O[C@H](COS(=O)(=O)O)[C@@H](O[C@@H]2OC(C(=O)O)=C[C@H](O)[C@H]2OS(=O)(=O)O)[C@@H]1O (some centres unmarked) [H-8892]
- effect on the experimental DTH reaction, in words (disaccharide markers) ([1]; CD1 mice, s.c.): neutral and N.E.
- "R" value [1, 6]: 0 % x (μg/gm)^-1
- Bioassay of TNF Activity, in words [2]: No effect
- "R" value [2]: 0 % x (pg/ml)^-1

SMILES: O=C(O)C1=C[C@H](O)[C@@H](OS(=O)(=O)O)[C@H](O[C@H]2[C@H](O)[C@@H](NS(=O)(=O)O)C(O)O[C@@H]2COS(=O)(=O)O)O1 (stereo partly drawn) [H-9267, 2-O-sulfate-4-deoxy-4-en-iduronic acid-(α-1,4)-2-deoxy-2-N-sulfate-6-O-sulfateglucosamine]
- Inhmax ([1]; CD1 mice, s.c.): 64%
- DTH ([1]; CD1 mice, s.c.): 7.2 ± 1 (19.6 ± 1.2) 10^-2 mm
- "R" value [1, 6]: 1.60 x 10^5 % x (μg/gm)^-1
- DTH Response ([1]; at the dose giving Inhmax, subcutaneous): 3.5 ± 1 10^-2mm
- Dose ([1]; dose giving Inhmax, subcutaneous): 0.0005 µg/gm mouse
- "R" value ([1]; inhibitory, maximum % inhibition of DTH divided by the dose giving it, s.c., 0 = no effect): 160,000 % x (µg/gm)^-1
- Inhmax ([1]; maximum inhibition of DTH, subcutaneous): 80%
- Bioassay of TNF Activity, in words [2]: Inconsistent

SMILES: O=S(=O)(O)N[C@H]1C(O)O[C@H](COS(=O)(=O)O)[C@@H](O)[C@@H]1O (stereo partly drawn) [GlcN-2,6S, D-Glucosamine-2,6-disulfate]
- Inhmax ([1]; CD1 mice, s.c.): 61%
- DTH ([1]; CD1 mice, s.c.): 7.7 ± 1 (19.7 ± 1.2) 10^-2 mm

SMILES: N[C@H]1C(O)O[C@H](CO)[C@H](O)[C@@H]1O (stereo partly drawn) [GalN, D-Galactosamine]
- Inhmax ([1]; CD1 mice, s.c.): 50%
- Dose [1, 7]: 0.12 µg/gm
- "R" value [1, 8]: 5.58 x 10^2 % x (µg/gm)^-1
- Inhmax [1, 8]: 67%
- "R" value [1, 6]: 1.25 x 10^6 % x (μg/gm)^-1
- effect on AA, in words ([3]; s.c. weekly, different dosages (FIG. 38C)): inhibitory effects but to a much lesser degree than that shown by glucosamine

SMILES: N[C@H]1C(O)O[C@H](CO)[C@@H](O)[C@@H]1OS(=O)(=O)O (stereo partly drawn) [GlcN-3S, D-Glucosamine-3-sulfate]
- effect on the experimental DTH reaction (monosaccharides) ([1]; CD1 mice, s.c.): N.E.
- "R" value [1, 6]: 0 % x (μg/gm)^-1

SMILES: CC(=O)N[C@H]1C(O)O[C@H](COS(=O)(=O)O)[C@@H](O[C@@H]2OC(C(=O)O)=C[C@H](O)[C@H]2OS(=O)(=O)O)[C@@H]1O (stereo partly drawn) [H-9517, 2-O-sulfate-4-deoxy-4-en-iduronic acid-(α-1,4)-2-deoxy-2-N-acetyl-6-O-sulfateglucosamine]
- Inhmax ([1]; CD1 mice, s.c.): 62%
- DTH ([1]; CD1 mice, s.c.): 7.6 ± 1 (20.4 ± 0.7) 10^-2 mm
- "R" value [1, 6]: 1.55 x 10^6 % x (μg/gm)^-1
- Bioassay of TNF Activity, in words [2]: Inconsistent^c

SMILES: O=S(=O)(O)N[C@H]1C(O)O[C@H](CO)[C@@H](O)[C@@H]1O (stereo partly drawn) [GlcN-2S, D-Glucosamine-2-N-sulfate]
- effect on the experimental DTH reaction (monosaccharides) ([1]; CD1 mice, s.c.): N.E.
- "R" value [1, 6]: 0 % x (μg/gm)^-1

SMILES: CC(=O)N[C@H]1C(O)O[C@H](CO)[C@@H](O[C@@H]2OC(C(=O)O)=C[C@H](O)[C@H]2O)[C@@H]1O (stereo partly drawn) [H-0895, 4-deoxy-4-en-iduronic acid-(α-1,4)-2-deoxy-2-N-acetylglucosamine]
- Inhmax column, value printed with +: augmentation of the DTH swelling ([1]; CD1 mice, s.c.): +92%
- dose giving the augmenting effect on swelling ([1]; CD1 mice, s.c.): about 1.2 picograms disaccharide per gram mouse
- DTH ([1]; CD1 mice, s.c.): 37.3 ± 0.7 (18.9 ± 0.7) 10^-2 mm
- AA score against control, in words ([3]; 0.1 and 0.4 ng/rat s.c. weekly, day 24): not substantially different from control levels
- effect on AA, in words ([3]; 0.1 and 0.4 ng/rat s.c. weekly, within about 2 weeks of induction): increased level of AA development
- Bioassay of TNF Activity, in words [2]: Inconsistent

SMILES: N[C@H]1C(O)O[C@H](COS(=O)(=O)O)[C@@H](O[C@@H]2OC(C(=O)O)=C[C@H](O)[C@H]2O)[C@@H]1O (some centres unmarked) [H-9017]
- effect on the experimental DTH reaction, in words (disaccharide markers) ([1]; CD1 mice, s.c.): neutral and N.E.
- "R" value [1, 6]: 0 % x (μg/gm)^-1
- Bioassay of TNF Activity, in words [2]: No effect
- "R" value [2]: 0 % x (pg/ml)^-1

SMILES: CC(=O)N[C@H]1C(O)O[C@H](CO)[C@@H](O)[C@@H]1O (some centres unmarked) [NAc-GlcN, N-Acetylglucosamine]
- effect on the experimental DTH reaction (monosaccharides) ([1]; CD1 mice, s.c.): N.E.
- "R" value [1, 6]: 0 % x (μg/gm)^-1

SMILES: O=S(=O)(O)N[C@H]1C(O)O[C@H](CO)[C@@H](O)[C@@H]1OS(=O)(=O)O (stereo partly drawn) [GlcN-2,3S, D-Glucosamine-2,3-disulfate]
- Inhmax ([1]; CD1 mice, s.c.): 68%
- DTH ([1]; CD1 mice, s.c.): 6.3 ± 1 (19.7 ± 1.2) 10^-2 mm
- "R" value [1, 6]: 5.67 x 10^4 % x (μg/gm)^-1
